Like-named read-outs stand apart in the source and are kept apart here.

One assay deals with T1, human recombinant HDAC6 (Homo sapiens, UniProt Q9UBN7).
T1 construct: purchased Calbiochem Inc. 382180
T1 sequence (Q9UBN7 1-1215): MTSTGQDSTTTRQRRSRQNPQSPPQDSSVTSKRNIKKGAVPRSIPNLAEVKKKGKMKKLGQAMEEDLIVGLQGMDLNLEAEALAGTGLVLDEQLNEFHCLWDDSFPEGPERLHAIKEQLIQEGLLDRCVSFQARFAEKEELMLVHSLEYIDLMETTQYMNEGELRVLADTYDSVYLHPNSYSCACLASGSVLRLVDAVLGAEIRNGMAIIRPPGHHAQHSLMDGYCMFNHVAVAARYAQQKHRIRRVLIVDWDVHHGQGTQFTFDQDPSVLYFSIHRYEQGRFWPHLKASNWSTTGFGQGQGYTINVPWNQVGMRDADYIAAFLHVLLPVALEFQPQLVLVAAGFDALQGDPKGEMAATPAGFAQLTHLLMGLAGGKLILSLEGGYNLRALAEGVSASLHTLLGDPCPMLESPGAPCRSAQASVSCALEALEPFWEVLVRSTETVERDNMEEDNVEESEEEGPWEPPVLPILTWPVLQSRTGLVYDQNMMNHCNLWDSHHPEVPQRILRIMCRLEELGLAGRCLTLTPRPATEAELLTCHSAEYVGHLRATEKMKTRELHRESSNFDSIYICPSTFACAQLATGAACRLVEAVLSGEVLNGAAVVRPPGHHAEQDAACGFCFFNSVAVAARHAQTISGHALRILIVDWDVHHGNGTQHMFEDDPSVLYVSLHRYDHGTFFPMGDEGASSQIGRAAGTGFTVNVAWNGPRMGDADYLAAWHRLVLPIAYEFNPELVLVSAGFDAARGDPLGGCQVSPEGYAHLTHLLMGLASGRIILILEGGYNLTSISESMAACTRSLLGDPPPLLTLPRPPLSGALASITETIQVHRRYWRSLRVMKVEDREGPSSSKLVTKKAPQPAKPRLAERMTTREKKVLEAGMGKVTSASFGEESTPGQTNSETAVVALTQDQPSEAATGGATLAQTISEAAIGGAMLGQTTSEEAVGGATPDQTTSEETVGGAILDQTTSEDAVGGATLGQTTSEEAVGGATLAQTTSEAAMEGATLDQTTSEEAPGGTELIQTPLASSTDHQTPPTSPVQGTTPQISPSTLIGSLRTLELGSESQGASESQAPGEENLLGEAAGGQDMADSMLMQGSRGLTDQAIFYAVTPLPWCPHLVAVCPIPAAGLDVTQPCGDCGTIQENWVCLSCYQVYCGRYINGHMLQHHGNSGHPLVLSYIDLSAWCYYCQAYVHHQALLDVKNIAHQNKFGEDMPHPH
The experiment in a line: HDAC6 enzyme activity inhibition (HDAC Fluorimetric Drug Discovery Kit). Type of assay: biochemical. Put shortly: (§1)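 Fluorimetric deacetylase read-out: after 30 min with Developer II following a 60 min, 30° C reaction of recombinant enzyme ([…]) with 10 μM substrate, across five-fold serial compound dilutions.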

The target in the next assay is T2, human recombinant HDAC1 (Homo sapiens, UniProt Q13547).
T2 construct: purchased Enzo Life Science, Inc. BML-SE456
The experiment in a line: HDAC1 enzyme activity inhibition (HDAC Fluorimetric Drug Discovery Kit). Type of assay: biochemical. The following applies: read-out: HDAC1. The method, boiled down:
as §1

The mark [1] stands for this setting: human recombinant HDAC6, IC50 calculated with GraphPad Prism.
The mark [2] stands for this setting: human recombinant HDAC1, IC50 calculated with GraphPad Prism.
The mark [3] stands for this setting: human recombinant HDAC6, same protocol as HDAC1.
[4] abbreviates: human recombinant HDAC1, Fluor de Lys substrate, 30° C. 60 minutes.

T2 sequence (Q13547 whole entry): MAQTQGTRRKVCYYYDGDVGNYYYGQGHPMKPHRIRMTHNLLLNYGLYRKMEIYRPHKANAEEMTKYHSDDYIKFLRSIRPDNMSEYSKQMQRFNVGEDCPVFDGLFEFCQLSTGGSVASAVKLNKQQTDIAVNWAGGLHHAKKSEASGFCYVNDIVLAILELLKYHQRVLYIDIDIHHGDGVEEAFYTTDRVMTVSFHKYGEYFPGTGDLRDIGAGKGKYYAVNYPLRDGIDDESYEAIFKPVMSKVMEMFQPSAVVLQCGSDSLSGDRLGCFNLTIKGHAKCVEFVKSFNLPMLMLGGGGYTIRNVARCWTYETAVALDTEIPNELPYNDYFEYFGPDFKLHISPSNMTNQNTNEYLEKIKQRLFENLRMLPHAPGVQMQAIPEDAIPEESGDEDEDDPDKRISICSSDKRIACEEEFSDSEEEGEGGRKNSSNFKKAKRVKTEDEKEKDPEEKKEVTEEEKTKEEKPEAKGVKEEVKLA

With `Fc1cc(-c2nnc(C(F)F)o2)ccc1Cn1cc(-c2cccc(NC3CCOCC3)c2)nn1` [Compound 4331, N-(3-(1-(4-(5-(difluoromethyl)-1,3,4-oxadiazol-2-yl)-2-fluorobenzyl)-1H-1,2,3-triazol-4-yl)phenyl)tetrahydro-2H-pyran-4-amine], the “HDAC6 selectivity (fold)” value at human recombinant HDAC6 (HDAC1 IC50 / HDAC6 IC50) was 1106 fold. The IC50 on human recombinant HDAC6 (setting [1]) was 45.2 nM; on human recombinant HDAC1 (setting [2]), above 50000 nM.

Take `CCN1Cc2cccc(-c3cn(Cc4ccc(-c5nnc(C(F)F)o5)cc4F)nn3)c2C1` [Compound 4535, 2-(difluoromethyl)-5-(4-((4-(2-ethylisoindolin-4-yl)-1H-1,2,3-triazol-1-yl)methyl)-3-fluorophenyl)-1,3,4-oxadiazole]: the “HDAC6 selectivity (fold)” value on human recombinant HDAC6 (HDAC6 over HDAC1) is 512 fold. The values for the IC50 at human recombinant HDAC6 (setting [3]) and on human recombinant HDAC1 (setting [4]) were 97.5 nM and above 50000 nM, respectively.

With `CC(C)(C)OC(=O)N1CCC(c2cn(Cc3ccc(-c4nnc(C(F)F)o4)cn3)nn2)CC1` [Compound 3805, tert-butyl 4-(1-((5-(5-(difluoromethyl)-1,3,4-oxadiazol-2-yl)pyridin-2-yl)methyl)-1H-1,2,3-triazol-4-yl)piperidin-1-carboxylate], the “HDAC6 selectivity (fold)” value on human recombinant HDAC6 (HDAC1 IC50 / HDAC6 IC50) is recorded as 844 fold. Also, the IC50 at human recombinant HDAC6 (setting [1]) is 59.2 nM; on human recombinant HDAC1 (setting [2]), above 50000 nM.

Turning to `CCN1CCN(Cc2ccc(-c3cn(Cc4ccc(-c5nnc(C(F)F)o5)cc4)nn3)cc2)CC1` [Compound 4553, 2-(difluoromethyl)-5-(4-((4-(4-((4-ethylpiperazin-1-yl)methyl)phenyl)-1H-1,2,3-triazol-1-yl)methyl)phenyl)-1,3,4-oxadiazole], the “HDAC6 selectivity (fold)” value at human recombinant HDAC6 (HDAC6 over HDAC1) is listed as 986 fold. Besides, the IC50 on human recombinant HDAC6 (setting [3]) was 50.7 nM; at human recombinant HDAC1 (setting [4]), above 50000 nM.

For the compound `CC(C)N1Cc2cccc(-c3cn(Cc4ccc(-c5nnc(C(F)F)o5)cc4)nn3)c2C1` [Compound 4531, 2-(difluoromethyl)-5-(4-((4-(2-isopropylisoindolin-4-yl)-1H-1,2,3-triazol-1-yl)methyl)phenyl)-1,3,4-oxadiazole], the “HDAC6 selectivity (fold)” value on human recombinant HDAC6 (HDAC6 over HDAC1) is listed as 412 fold. Moreover, the IC50 on human recombinant HDAC6 (setting [3]) is 121 nM; on human recombinant HDAC1 (setting [4]), above 50000 nM.

Regarding `Fc1cc(-c2nnc(C(F)F)o2)ccc1Cn1cc(-c2ccc(Cl)nc2)nn1` [Compound 16781, 2-(4-((4-(6-chloropyridin-3-yl)-1H-1,2,3-triazol-1-yl)methyl)-3-fluorophenyl)-5-(difluoromethyl)-1,3,4-oxadiazole], the “HDAC6 selectivity (fold)” value on human recombinant HDAC6 (HDAC6 over HDAC1) was found to be 546 fold. Further, the figures for the IC50 at human recombinant HDAC6 (setting [3]) and on human recombinant HDAC1 (setting [4]) were 91.5 nM and above 50000 nM, respectively.

In the case of `CC(=O)N1CCC(F)(c2cn(Cc3ccc(-c4nnc(C(F)F)o4)cn3)nn2)CC1` [Compound 4009, 1-(4-(1-((5-(5-(difluoromethyl)-1,3,4-oxadiazol-2-yl)pyridin-2-yl)methyl)-1H-1,2,3-triazol-4-yl)-4-fluoropiperidin-1-yl)ethan-1-one], at human recombinant HDAC6 (HDAC1 IC50 / HDAC6 IC50), the “HDAC6 selectivity (fold)” value is on record as 405 fold. Besides, the IC50 at human recombinant HDAC6 (setting [1]) was 123 nM; at human recombinant HDAC1 (setting [2]), above 50000 nM.

On to `CN1CCc2ccc(-c3cn(Cc4ccc(-c5nnc(C(F)F)o5)cc4F)nn3)cc2C1` [Compound 4363, 2-(difluoromethyl)-5-(3-fluoro-4-((4-(2-methyl-1,2,3,4-tetrahydroisoquinolin-7-yl)-1H-1,2,3-triazol-1-yl)methyl)phenyl)-1,3,4-oxadiazole], for which, at human recombinant HDAC6 (HDAC1 IC50 / HDAC6 IC50), the “HDAC6 selectivity (fold)” value is recorded as 1385 fold. Moreover, the IC50 is 36.1 nM on human recombinant HDAC6 (setting [1]) and above 50000 nM on human recombinant HDAC1 (setting [2]).

As for `Fc1cc(-c2nnc(C(F)F)o2)ccc1Cn1cc(-c2cccc(NC3COC3)c2)nn1` [Compound 4332, N-(3-(1-(4-(5-(difluoromethyl)-1,3,4-oxadiazol-2-yl)-2-fluorobenzyl)-1H-1,2,3-triazol-4-yl)phenyl)oxetan-3-amine], the “HDAC6 selectivity (fold)” value on human recombinant HDAC6 (HDAC1 IC50 / HDAC6 IC50) worked out at 1201 fold. The IC50 at human recombinant HDAC6 (setting [1]) is 41.6 nM; at human recombinant HDAC1 (setting [2]) it was above 50000 nM.

Regarding `CN1CCC(c2cccc(-c3cn(Cc4ncc(-c5nnc(C(F)F)o5)cc4F)nn3)c2)CC1` [Compound 18869, 2-(difluoromethyl)-5-(5-fluoro-6-((4-(3-(1-methylpiperidin-4-yl)phenyl)-1H-1,2,3-triazol-1-yl)methyl)pyridin-3-yl)-1,3,4-oxadiazole], at human recombinant HDAC6 (HDAC6 over HDAC1), the “HDAC6 selectivity (fold)” value is given as 1075 fold. The values for the IC50 at human recombinant HDAC6 (setting [3]) and at human recombinant HDAC1 (setting [4]) were 46.5 nM and above 50000 nM, respectively.

As for `CN1Cc2cccc(-c3cn(Cc4ccc(-c5nnc(C(F)F)o5)cn4)nn3)c2C1` [Compound 4595, 2-(difluoromethyl)-5-(6-((4-(2-methylisoindolin-4-yl)-1H-1,2,3-triazol-1-yl)methyl)pyridin-3-yl)-1,3,4-oxadiazole], the “HDAC6 selectivity (fold)” value at human recombinant HDAC6 (HDAC6 over HDAC1) is 1046 fold. The figures for the IC50 at human recombinant HDAC6 (setting [3]) and on human recombinant HDAC1 (setting [4]) were 47.8 nM and above 50000 nM, respectively.

For the compound `COC(=O)N1CCC(c2cn(Cc3ccc(-c4nnc(C(F)F)o4)cn3)nn2)CC1` [Compound 3891, Methyl4-(1-((5-(5-(difluoromethyl)-1,3,4-oxadiazol-2-yl)pyridin-2-yl)methyl)-1H-1,2,3-triazol-4-yl)piperidin-1-carboxylate], the “HDAC6 selectivity (fold)” value at human recombinant HDAC6 (HDAC1 IC50 / HDAC6 IC50) is on record as 287 fold. Besides, the IC50 is 174 nM on human recombinant HDAC6 (setting [1]) and above 50000 nM at human recombinant HDAC1 (setting [2]).

In the case of `COC(=O)N1CCC[C@H]1c1cn(Cc2ccc(-c3nnc(C(F)F)o3)cn2)nn1` [Compound 4028, methyl (S)-2-(1-((5-(5-(difluoromethyl)-1,3,4-oxadiazol-2-yl)pyridin-2-yl)methyl)-1H-1,2,3-triazol-4-yl)pyrrolidin-1-carboxylate], the “HDAC6 selectivity (fold)” value at human recombinant HDAC6 (HDAC1 IC50 / HDAC6 IC50) was found to be 238 fold. For the same compound, the results for the IC50 at human recombinant HDAC6 (setting [1]) and on human recombinant HDAC1 (setting [2]) were 210 nM and above 50000 nM, respectively.

With `CN(C)CCN(C)Cc1cccc(-c2cn(Cc3ccc(-c4nnc(C(F)F)o4)cn3)nn2)c1` [Compound 3918, N1-(3-(1-((5-(5-(difluoromethyl)-1,3,4-oxadiazol-2-yl)pyridin-2-yl)methyl)-1H-1,2,3-triazol-4-yl)benzyl)-N1,N2,N2-trimethylethane-1,2-diamine], the “HDAC6 selectivity (fold)” value at human recombinant HDAC6 (HDAC1 IC50 / HDAC6 IC50) turned out to be 1190 fold. Besides, the IC50 on human recombinant HDAC6 (setting [1]) was 42 nM; on human recombinant HDAC1 (setting [2]), above 50000 nM.

Turning to `O=C(O)c1ccc(-c2cn(Cc3ccc(-c4nnc(C(F)F)o4)cc3)nn2)cc1` [Compound 3731, 4-(1-(4-(5-(difluoromethyl)-1,3,4-oxadiazol-2-yl)benzyl)-1H-1,2,3-triazol-4-yl)benzoic acid], on human recombinant HDAC6 (HDAC1 IC50 / HDAC6 IC50), the “HDAC6 selectivity (fold)” value was 29 fold. Besides, the IC50 is 1720 nM on human recombinant HDAC6 (setting [1]) and above 50000 nM on human recombinant HDAC1 (setting [2]).

Take `CN1C[C@@H]2C[C@H]1CN2c1cc(-c2cn(Cc3ccc(-c4nnc(C(F)F)o4)cc3F)nn2)ccc1F` [Compound 4430, 2-(difluoromethyl)-5-(3-fluoro-4-((4-(4-fluoro-3-((1S,4S)-5-methyl-2,5-diazabicyclo[2.2.1]heptan-2-yl)phenyl)-1H-1,2,3-triazol-1-yl)methyl)phenyl)-1,3,4-oxadiazole]: the “HDAC6 selectivity (fold)” value on human recombinant HDAC6 (HDAC1 IC50 / HDAC6 IC50) is reported as 351 fold. The IC50 was 142 nM at human recombinant HDAC6 (setting [1]) and above 50000 nM at human recombinant HDAC1 (setting [2]).

Take `Fc1cc(-c2nnc(C(F)F)o2)ccc1Cn1cc(-c2cccc3c2OC(F)(F)O3)nn1` [Compound 18470, 2-(4-((4-(2,2-difluorobenzo[d][1,3]dioxol-4-yl)-1H-1,2,3-triazol-1-yl)methyl)-3-fluorophenyl)-5-(difluoromethyl)-1,3,4-oxadiazole]: at human recombinant HDAC6 (HDAC6 over HDAC1), the “HDAC6 selectivity (fold)” value was 506 fold. In addition, the IC50 is 98.7 nM at human recombinant HDAC6 (setting [3]) and above 50000 nM on human recombinant HDAC1 (setting [4]).
